From patent US8987502B2, “Oleanolic acid amidate derivatives, preparation methods and uses thereof” (Hangzhou Bensheng Pharmaceutical Co., Ltd., priority 2011, dated 2015)
Converted amounts (≈) assume the structure as drawn.

Assays:
K562/adr = test: MTT leukemia cell proliferation inhibition, K562/adr; type: cell-based; conditions: Homo sapiens, 72 h
Description: (§1) Leukemia cell lines: leukemia cell lines: K562/adr (drug-resistant, chronic myeloid leukemia, CML), NB4 (acute promyelocytic leukemia, AML), Kasumi-1 (acute myeloid leukemia M2 type, AML-M2), Jurkat (acute lymphoblastic leukemia, ALL), all of which are donated by Cancer Research Institute of Zhejiang University, China; and H9 (acute lymphoblastic leukemia, ALL), which is purchased from China Center for Type Culture Collection (CCTCC).
(§2) Reagents: The standard sample of oleanolic acid (OA) is purchased from Hua Kang Pharmaceutical Raw Material Factory, Shifang City, Sichuan, China; and the amidated oleanolic acid derivatives are prepared according to the present invention.
(§3) Obtaining 6000 well-growing leukemia cells and inoculating them into wells of a 96-well cell culture plate. The culture medium is the 1640 cell culture medium containing 10% fetal bovine serum. After adding the amidated oleanolic acid derivatives of different concentrations and mixing uniformly, placing the plate in a carbon dioxide cell incubator (5% CO2) at 37° C. and incubated for 72 hours. Then the relative number of viable cells is determined by the MTT method. In this experiment, the cell proliferation inhibition rate in control group (not treated with any compound) is set as 0%.

NB4 = test: MTT leukemia cell proliferation inhibition, NB4; type: cell-based; conditions: Homo sapiens, NB-4
Description: as §1, §2, §3

Kasumi-1 = test: MTT leukemia cell proliferation inhibition, Kasumi-1; type: cell-based; conditions: Homo sapiens
Description: as §1, §2, §3

H9 = test: MTT leukemia cell proliferation inhibition, H9; type: cell-based, human; conditions: Homo sapiens
Description: as §1, §2, §3

Jurkat = test: MTT leukemia cell proliferation inhibition, Jurkat; type: cell-based; conditions: Homo sapiens, 72 h
Description: as §1, §2, §3

RPMI8226 = test: MTT multiple myeloma cell proliferation inhibition, RPMI8226; type: cell-based; conditions: Homo sapiens, RPMI-8226
Experimental: Multiple myeloma cell lines: RPMI8226 (multiple myeloma), purchased from Fuxiang Bio-tech Co. Ltd., Shanghai, China.
as §3

A549 = test: MTT solid tumor cell proliferation inhibition, A549; type: cell-based, human
Experimental: (§4) Human solid tumor cell lines: Hep-2 (laryngeal carcinoma), A549 (human lung cancer), CaES-17 (esophageal cancer cell), PC-3 (prostate cancer), CNE (nasopharyngeal carcinoma cell), and SK-OV-3 (ovarian cancer cell), all of which are purchased from China Center For Type Culture Collection; RKO (human colon adenocarcinoma cell), MGC 803 (human gastric cancer cell), MG63 (osteosarcoma) and U87 MG (malignant glioma cell), all of which are purchased from Fuxiang Bio-tech Co. Ltd., Shanghai, China; PANC-1 (pancreatic cancer), Hep G2 (human liver cancer cell), Becap37 (human breast cancer cell), and Hela (human cervical cancer cell), all of which are donated by Cancer Research Institute of Zhejiang University, China.
(§5) Obtaining 4000 well-growing human solid tumor cells and inoculating them into wells of a 96-well cell culture plate. The culture medium is DMEM High Glucose cell culture medium containing 10% fetal bovine serum. The plate is placed in a carbon dioxide cell incubator (5% CO2) at 37° C. for 24 hours for incubation. After being added with the amidated oleanolic acid derivatives of different concentrations and mixed uniformly, the plate is placed in a carbon dioxide cell incubator (5% CO2) at 37° C. for 72 hours for incubation. Then the relative number of the living cells is determined by the MTT method. In this experiment, the cell proliferation inhibition rate in control group (not treated with any compound) is set as 0%.

PANC-1 = test: MTT solid tumor cell proliferation inhibition, PANC-1; type: cell-based, human; conditions: Homo sapiens
Experimental: as §4, §5

Becap37 = test: MTT solid tumor cell proliferation inhibition, Becap37; type: cell-based; conditions: Homo sapiens
Experimental: as §4, §5

MG 63 = test: MTT solid tumor cell proliferation inhibition, MG 63; type: cell-based, human
Experimental: as §4, §5

Hep G2 = test: MTT solid tumor cell proliferation inhibition, Hep G2; type: cell-based; conditions: Homo sapiens, HepG2
Experimental: as §4, §5

RKO = test: MTT solid tumor cell proliferation inhibition, RKO; type: cell-based; conditions: Homo sapiens, 72 h
Experimental: as §4, §5

U87 MG = test: MTT solid tumor cell proliferation inhibition, U87 MG; type: cell-based, human
Experimental: as §4, §5

Hela = test: MTT solid tumor cell proliferation inhibition, Hela; type: cell-based, human; conditions: Homo sapiens, Hela, 72 h
Experimental: as §4, §5

CaES-17 = test: MTT solid tumor cell proliferation inhibition, CaES-17; type: cell-based, human
Experimental: as §4, §5

CNE = test: MTT solid tumor cell proliferation inhibition, CNE; type: cell-based, human; conditions: Homo sapiens, CNE, 72 h
Experimental: as §4, §5

Hep-2 = test: MTT solid tumor cell proliferation inhibition, Hep-2; type: cell-based, human
Experimental: as §4, §5

MGC803 = test: MTT solid tumor cell proliferation inhibition, MGC803; type: cell-based, human; conditions: Homo sapiens, MGC-803
Experimental: as §4, §5

PC-3 = test: MTT solid tumor cell proliferation inhibition, PC-3; type: cell-based, human; conditions: Homo sapiens
Experimental: as §4, §5

SK-OV-3 = test: MTT solid tumor cell proliferation inhibition, SK-OV-3; type: cell-based, human; conditions: Homo sapiens
Experimental: as §4, §5

[1] = 16 μg/mL compound, read-out: IR (inhibition rate)

IC50 (K562/adr; MTT): 5.26 µg/mL (≈ 10.1 µM) | IC50 (NB4; NB4, 72 h, MTT): 9.17 µg/mL (≈ 17.6 µM) | IC50 (Kasumi-1; Kasumi-1, 72 h, MTT): 13.1 µg/mL (≈ 25.1 µM) | IC50 (H9; H9, 72 h, MTT): 14 µg/mL (≈ 26.8 µM) | IC50 (Jurkat; MTT): 14.5 µg/mL (≈ 27.8 µM) | IC50 (RPMI8226; RPMI8226, 72 h, MTT): 5.79 µg/mL (≈ 11.1 µM) | IC50 (A549; Homo sapiens, A549, 72 h, MTT): 15 µg/mL (≈ 28.7 µM) | IC50 (PANC-1; PANC-1, 72 h, MTT): > 16 µg/mL | IC50 (Becap37; Becap37, 72 h, MTT): > 16 µg/mL | IC50 (MG 63; Homo sapiens, MG 63, 72 h, MTT): 15.1 µg/mL (≈ 29 µM) | IC50 (Hep G2; Hep G2, 72 h, MTT): > 16 µg/mL | IC50 (RKO; MTT): 14.3 µg/mL (≈ 27.4 µM) | IC50 (U87 MG; Homo sapiens, U-87 MG, U87 MG, 72 h, MTT): 16 µg/mL (≈ 30.7 µM) | IC50 (Hela; MTT): 12.6 µg/mL (≈ 24.1 µM) | IC50 (CaES-17; Homo sapiens, CaEs17, CaES-17, 72 h, MTT): 12.4 µg/mL (≈ 23.8 µM) | IC50 (CNE; MTT): > 16 µg/mL | IC50 (Hep-2; Homo sapiens, Hep-2, 72 h, MTT): > 16 µg/mL | IC50 (MGC803; MGC803, 72 h, MTT): 16 µg/mL (≈ 30.7 µM) | IC50 (PC-3; PC-3, 72 h, MTT): 19.5 µg/mL (≈ 37.4 µM) | IC50 (SK-OV-3; SK-OV-3, 72 h, MTT): > 16 µg/mL
SMILES: CC1(C)CC[C@]2(NC(=O)c3ccco3)CC[C@]3(C)C(=CC[C@@H]4[C@@]5(C)CC[C@H](O)C(C)(C)[C@@H]5CC[C@]43C)[C@@H]2C1 [BS-OA-099]
inhibition at 16 µg/mL (K562/adr; [1]): 97.1% | inhibition at 16 µg/mL (NB4; NB4, 16 μg/mL compound, 72 h, read-out: IR (inhibition rate)): 100% | inhibition at 16 µg/mL (Kasumi-1; Kasumi-1, 16 μg/mL compound, 72 h, read-out: IR (inhibition rate)): 69.1% | inhibition at 16 µg/mL (H9; H9, 16 μg/mL compound, 72 h, read-out: IR (inhibition rate)): 59.8% | inhibition at 16 µg/mL (Jurkat; [1]): 63.6% | inhibition at 16 µg/mL (RPMI8226; RPMI8226, 16 μg/mL compound, 72 h, read-out: IR (inhibition rate)): 98.9% | improvement of cell inhibition rate as compared with oleanolic acid (A549; A549 cells): more than 4 fold | inhibition at 16 µg/mL (A549; Homo sapiens, A549, 16 μg/mL compound, 72 h, read-out: IR (inhibition rate)): 75% | inhibition at 16 µg/mL (PANC-1; PANC-1, 16 μg/mL compound, 72 h, read-out: IR (inhibition rate)): 34.3% | inhibition at 16 µg/mL (Becap37; Becap37, 16 μg/mL compound, 72 h, read-out: IR (inhibition rate)): 35.1% | IR (inhibition rate) (MG 63; MG 63, 16 μg/mL compound, 72 h): 58.9% | inhibition at 16 µg/mL (Hep G2; Hep G2, 16 μg/mL compound, 72 h, read-out: IR (inhibition rate)): 25.3% | inhibition at 16 µg/mL (RKO; [1]): 63.1% | inhibition at 16 µg/mL (U87 MG; Homo sapiens, U-87 MG, U87 MG, 16 μg/mL compound, 72 h, read-out: IR (inhibition rate)): 47.9% | improvement of cell inhibition rate as compared with oleanolic acid (U87 MG; U87 MG cells): more than 2 fold | inhibition at 16 µg/mL (Hela; [1]): 72.9% | improvement of cell inhibition rate as compared with oleanolic acid (CaES-17; CaES-17 cells): more than 2 fold | inhibition at 16 µg/mL (CaES-17; Homo sapiens, CaEs17, CaES-17, 16 μg/mL compound, 72 h, read-out: IR (inhibition rate)): 66.6% | inhibition at 16 µg/mL (CNE; [1]): 42.4% | improvement of cell inhibition rate as compared with oleanolic acid (Hep-2; Hep-2 cells): more than 3 fold | inhibition at 16 µg/mL (Hep-2; Homo sapiens, Hep-2, 16 μg/mL compound, 72 h, read-out: IR (inhibition rate)): 37.3% | inhibition at 16 µg/mL (MGC803; MGC803, 16 μg/mL compound, 72 h, read-out: IR (inhibition rate)): 50% | inhibition at 16 µg/mL (PC-3; PC-3, 16 μg/mL compound, 72 h, read-out: IR (inhibition rate)): 47.2% | inhibition at 16 µg/mL (SK-OV-3; SK-OV-3, 16 μg/mL compound, 72 h, read-out: IR (inhibition rate)): 43.2%
